According to PMC4764579, “Structural insights into the mechanism of activation of the TRPV1 channel by a membrane-bound tarantula toxin” (eLife, 2016):
Positions of bridges follow the written chain, without caps; N, C: chain ends. Residues, ends and D or L forms follow the SMILES beside them.

Assay: Membrane partitioning of toxins into lipid vesicles measured using Trp fluorescence
Assay type: physicochemical
Conditions: LUVs 1:1 POPC:POPG
Text: Motivated by the amphipathic character evident in the structure of DkTx, together with the placement of the toxin at the protein-lipid interface when bound to TRPV1, we investigated the interaction of DkTx and each of its two lobes with lipid membranes. For these experiments, we took advantage of the presence of a single conserved and solvent accessible Trp residue in loop 2 of both K1 and K2 (Figure 1C,D; W11 and W53), and used Trp fluorescence to monitor the partitioning of the toxin from the aqueous solution into the membrane environment ([Gupta et al., 2015]; [Ladokhin et al., 2000]; [Milescu et al., 2007]). When aqueous solutions of DkTx were excited at a wavelength of 280 nm, emission spectra with maxima at 353 nm were obtained (Figure 5A, left), as expected for Trp residues residing in such an environment. […] To quantify the extent of partitioning as a function of lipid concentration, we measured the relative fluorescence intensity in a blue-shifted region of the spectra (e.g. 320 nm) as a function of lipid concentration, and fit a partition function to the data to obtain a mole-fraction partition coefficient (Kx) of (2.3 ± 0.7) × 10^6, indicating an energetically favorable interaction of DkTx with lipid membranes (Figure 5A, right). This strong interaction of DkTx with membranes would facilitate binding of the toxin to the channel by increasing the local concentration of the toxin near the channel and by a reduction in the dimensionality of diffusion within the membrane ([Axelrod and Wang, 1994]).
Figure 5. Interaction of DkTx and toxin constructs with lipid membranes measured using Trp fluorescence. (A–E, left panel) Trp emission spectra of DkTx (A), K1 without linker (B), K2 (C), bivalent K1 (K1K1) (D) and bivalent K2 (K2K2) (E) in the absence (black) and presence (blue, 1.6 mM for DkTx, 2 mM for K1-ΔL and K1K1, and 3 mM for K2 and K2K2) of lipid vesicles (1:1 mix of POPC:POPG). (A–E, right panel) Relative fluorescence intensity at 320 nm (F/F0) as a function of available lipid concentrations (60% of total lipid concentration). Smooth curves correspond to partition functions with Kx = (2.3 ± 0.7) × 10^6 and F/F0^max = 2.65 ± 0.08 for DkTx, Kx = (3.9 ± 1.1) × 10^5 and F/F0^max = 2.63 ± 0.07 for K1-ΔL, Kx = (2.0 ± 0.3) × 10^4 and F/F0^max = 3.71 ± 0.40 for K2, Kx = (2.9 ± 0.3) × 10^6 and F/F0^max = 2.47 ± 0.03 for K1K1 and Kx = (8.1 ± 2) × 10^5 and F/F0^max = 2.77 ± 0.55 for K2K2. Error bars correspond to SEM (n = 3 or 4). Partition functions for K1-ΔL and K2 are shown as dotted lines for comparison in D and E, respectively. (F) Comparisons of mole-fraction partition coefficient (Kx) of toxins. 7G-DkTx denotes a construct of DkTx whose linker (PYVPVTT) is replaced with 7 Gly residues. Error bars correspond to SEM (n = 3 or 4). DOI: http://dx.doi.org/10.7554/eLife.11273.020 Figure 5—figure supplement 1. Interaction of K1-K2 chimeras with lipid membranes measured using Trp fluorescence. (A–E, left panel) Trp emission spectra of K1(D1N) (A), K1(K2L2) (B), K1(K2L3) (C), K1(K2L4) (D) and K1(K2CT) (E) in the absence (black) and presence (blue, 2 mM) of lipid vesicles (1:1 mix of POPC:POPG). (A–D, right panel) Relative fluorescence intensity at 320 nm (F/F0) as a function of available lipid concentrations (60% of total lipid concentration). Smooth curves correspond to partition functions with Kx = (1.76 ± 0.06) × 10^6 and F/F0^max = 3.79 ± 0.02 for K1(D1N), Kx = (4.77 ± 1.39) × 10^5 and F/F0^max = 1.31 ± 0.02 for K1(K2L2), Kx = (1.02 ± 0.04) × 10^4 and F/F0^max = 3.69 ± 0.02 for K1(K2L3), and Kx = (0.90 ± 0.04) × 10^6 and F/F0^max = 2.59 ± 0.02 for K1(K2L4). Error bar corresponds to SEM (n = 3 or 4). Smooth curve of K1-ΔL was shown as a dotted line for comparison throughout the figures. (F) Comparisons of mole-fraction partition coefficient (Kx) of toxins. Error bars correspond to SEM (n = 3 or 4). DOI: http://dx.doi.org/10.7554/eLife.11273.021 [drawing 10] […]

## CC[C@H](C)[C@@H]1NC(=O)[C@H](Cc2ccccc2)NC(=O)[C@H](C)NC(=O)[C@H](CC(C)C)NC(=O)[C@@H]2CCCN2C(=O)[C@@H]2CSSC[C@@H]3NC(=O)[C@H](C(C)C)NC(=O)[C@H](CCC(=O)O)NC(=O)CNC(=O)[C@H](CCC(=O)O)NC(=O)[C@H](CCCCN)NC(=O)[C@H](C)NC(=O)[C@@H](NC(=O)[C@@H](N)CC(N)=O)CSSC[C@H](NC(=O)[C@H](CSSC[C@@H](C(=O)N[C@@H](CCC(=O)O)C(=O)N[C@@H](CCCCN)C(=O)N[C@@H](Cc4ccc(O)cc4)C(=O)N[C@@H](CCCNC(=N)N)C(=O)O)NC(=O)[C@H](Cc4ccc(O)cc4)NC(=O)[C@@H]4CCCN4C1=O)NC(=O)[C@H](CCCCN)NC(=O)[C@H](CO)NC(=O)CNC(=O)[C@H](Cc1c[nH]c4ccccc14)NC(=O)CNC3=O)C(=O)N[C@@H](Cc1c[nH]cn1)C(=O)NCC(=O)N[C@@H](CC(C)C)C(=O)N[C@@H](CC(=O)O)C(=O)N2 [K2] (H-NCAKEGEVCGWGSKCCHGLDCPLAFIPYCEKYR-OH; disulfide 2-16, 9-21, 15-29 (inferred); N-terminus and C-terminus assumed)
Trp fluorescence, 10 mM HEPES, 1 mM EDTA, pH 7.0, fit of partition function, ± SEM, n = 3 or 4, SEM
  F/F0^max (relative fluorescence intensity at 320 nm when partitioning is saturated): 3.71 ± 0.40
From measured Kx
  measured free energy of membrane partitioning (ΔG° = −RT lnKx): -5.8 kcal/mol
